# T1: replicase complex (Hepatitis C virus genotype 1b, UniProt Q9WMX2)
# T1 construct: expressed in transfected cells; host or cells: HCV replicon cells (Huh-7 derived)
# T1 sequence (Q9WMX2 1658-1711 limits assumed): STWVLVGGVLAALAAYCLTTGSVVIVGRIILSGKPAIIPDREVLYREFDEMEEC
# Legend:
# [1] = system: NNI-1^R (M414T); experiment: Susceptibility of NNI-1 resistant replicon cell line; assay type: cell-based, hepatitis C virus; settings: NNI-1^R (M414T) versus Huh-9-13
# [2] = system: Luc/NS3-A39V replicon; experiment: Luciferase replicon susceptibility, NS3 A39V; assay type: cell-based, hepatitis C virus
# Method: (§1) To investigate the genetic basis of resistance to ACH-806 in the resistant replicon cellular lines, specifically the role of C16S and A39V in NS3, and 1585T 1 in NS5B, we introduced these mutations separately into a nonselectable replicon containing a luciferase reporter gene. Following the transfection of the parental replicon RNA molecule and the C16S, A39V and I585T variant replicon RNA molecules into Huh-7 cells, the replication capacity of all replicons was determined as described in Method and Materials. Replicon RNA carrying the A39V mutation replicated as efficiently as its parent, whereas the C16S and I585T mutations caused a slight decrease in the replication capacity (about 75% that of the parental replicon). The susceptibility of these four replicons to ACH-806 as well as to other classes of inhibitors was compared side by side, and the results are summarized in Table 2.
# [3] = system: Luc/Parent replicon; experiment: Luciferase replicon susceptibility, parent; assay type: cell-based; settings: Hepatitis C virus, Luc/Parent replicon in Huh-7 cells, two independent experiments
# Method: as §1
# [4] = system: BILN 2061^R (D168V); experiment: Susceptibility of BILN 2061 resistant replicon cell line; assay type: cell-based, hepatitis C virus; settings: BILN 2061^R (D168V) versus Huh-9-13
# [5] = system: Luc/NS3-4A^R(S16) replicon; experiment: Fragment-cloned luciferase replicon susceptibility, S16; assay type: cell-based; settings: Hepatitis C virus
# From the text: A third approach, fragment cloning, was used to reinforce the role of the C16S mutation and to exclude the role of other nonconsensus mutations in conferring resistant to ACH-806. A ˜3 kb fragment covering the coding region of NS3, NS4A, and part of NS4B was amplified by RT-PCR from total RNA isolated from ACH-806 resistant clone #28. The PCR product was cloned into the nonselectable replicon containing a luciferase reporter gene. Replicon RNA molecules were made from eight individual clones and were transfected into Huh-7 cells to determine the replication capacity by luciferase activity. From the eight clones, two were able to replicate efficiently and sequencing of the entire cloned fragment in these two clones confirmed the existence of C16S mutation in addition to other nonconsensus mutations. The serine at the amino acid residue of NS3 in one of these two clones was then converted back to cysteine using site-directed mutagenesis, leaving other nonconsensus mutations unchanged. The replication capacity of this resulting replicon [Luc/N3-4AR(C16)] was 95% that of its parent [Luc/N3-4AR(S16)] determined as previously described. After transfection into Huh-7 cells, the susceptibility of both replicons was compared. […]
# [6] = system: Luc/NS3-C16S replicon; experiment: Luciferase replicon susceptibility, NS3 C16S; assay type: cell-based, hepatitis C virus
# Method: as §1
# [7] = system: C16S or A39V replicon variant; experiment: Colony formation with selectable replicon under G418 and ACH-806; assay type: cell-based, hepatitis C virus; settings: C16S or A39V versus parental selectable replicon
# From the text: (§2) To further confirm the role of C16S and A39V in conferring resistance to ACH-806, we introduced both mutations, separately, into a selectable replicon which carries the neo gene and the adaptive mutations that differ from the nonselectable replicon. Following transfection of the parental replicon RNA, the C16S replicon RNA and A39V replicon RNA into Huh-7 cells, the susceptibility of these three replicons to ACH-806, as evaluated by the number of colonies formed under the treatment of both G418 and ACH-806, was compared side by side. Again, an approximately 10-fold reduction in the susceptibility of C16S or A39V replicon variant to ACH-806 was observed.
# [8] = system: Luc/NS3-4A^R(C16) replicon; experiment: Fragment-cloned luciferase replicon susceptibility, C16 revertant; assay type: cell-based, hepatitis C virus
# From the text: A third approach, fragment cloning, was used to reinforce the role of the C16S mutation and to exclude the role of other nonconsensus mutations in conferring resistant to ACH-806. A ˜3 kb fragment covering the coding region of NS3, NS4A, and part of NS4B was amplified by RT-PCR from total RNA isolated from ACH-806 resistant clone #28. The PCR product was cloned into the nonselectable replicon containing a luciferase reporter gene. Replicon RNA molecules were made from eight individual clones and were transfected into Huh-7 cells to determine the replication capacity by luciferase activity. From the eight clones, two were able to replicate efficiently and sequencing of the entire cloned fragment in these two clones confirmed the existence of C16S mutation in addition to other nonconsensus mutations. The serine at the amino acid residue of NS3 in one of these two clones was then converted back to cysteine using site-directed mutagenesis, leaving other nonconsensus mutations unchanged. The replication capacity of this resulting replicon [Luc/N3-4AR(C16)] was 95% that of its parent [Luc/N3-4AR(S16)] determined as previously described. After transfection into Huh-7 cells, the susceptibility of both replicons was compared. The reversion of serine back to cysteine at amino acid residue 16 of NS3 increased the susceptibility of the replicon to ACH-806 about 10 fold and maintained the susceptibility to other classes of HCV inhibitors (Table 3). Similar results were also obtained with a fragment containing NS3, 4A and part of 4B derived from a resistant cell line carrying A39V mutation (data not shown).
# [9] = target: T1, replicase complex; experiment: Replicase activity in treated replicon cells (FIG. 3); assay type: cell-based; settings: 16 hour treatment of replicon cells, concentrations as low as 50 μM
# From the text: FIG. 3. ACH-806 is a potent inhibitor of functional replicase complex production.
# [10] = system: Luc/NS5B-I585T; assay type: cell-based, hepatitis C virus
# Method: as §1
# [11] = system: replicon variants carrying either the C16S or A39V mutation; experiment: Summary of three approaches on mutant replicon variants; assay type: cell-based, hepatitis C virus; settings: all three approaches
# Method: To investigate the genetic basis of resistance to ACH-806 in the resistant replicon cellular lines, specifically the role of C16S and A39V in NS3, and 1585T 1 in NS5B, we introduced these mutations separately into a nonselectable replicon containing a luciferase reporter gene. Following the transfection of the parental replicon RNA molecule and the C16S, A39V and I585T variant replicon RNA molecules into Huh-7 cells, the replication capacity of all replicons was determined as described in Method and Materials. […]
# as §2, with “Again, an approximately 10-fold reduction in the susceptibility of C16S or A39V replicon variant to ACH-806 was observed.” left out
# A third approach, fragment cloning, was used to reinforce the role of the C16S mutation and to exclude the role of other nonconsensus mutations in conferring resistant to ACH-806. […] The replication capacity of this resulting replicon [Luc/N3-4AR(C16)] was 95% that of its parent [Luc/N3-4AR(S16)] determined as previously described. […]
# [12] = system: NM107^R (S282T); experiment: Susceptibility of NM107 resistant replicon cell line; assay type: cell-based, hepatitis C virus; settings: NM107^R (S282T) versus Huh-9-13
# [13] = system: VX-950^R (A156T); experiment: Susceptibility of VX-950 resistant replicon cell line; assay type: cell-based, hepatitis C virus; settings: VX-950^R (A156T) versus Huh-9-13
# [14] = system: parental replicon cellular line, Huh-9-13; experiment: Susceptibility of parental replicon cellular line; assay type: cell-based, hepatitis C virus; settings: for EC50: Hepatitis C virus, read-out: EC50 ± SD
# [15] = system: HCV replicon; experiment: HCV replicon assay (Example 1); assay type: cell-based; settings: Hepatitis C virus; Huh-7 cells expressing the HCV replicon
# Method: The ability to inhibit viral replication of Hepatitis C can be tested using the HCV replicon expressed in cultured cells in which an HCV replicon construct has been incorporated. The HCV replicon system was described by Bartenschlager, et. al (Science, 285, pp. 110-113, 1999). The replicon system is predictive of in vivo activity against HCV; compounds that are active in humans uniformly evidence activity in the replicon assay.
# In this assay HCV replicon containing cells are treated with different concentrations of the test compound to ascertain the ability of the test compound to suppress replication of the HCV replicon. As a positive control, HCV replicon-containing cells are treated with different concentrations of interferon alpha, a known inhibitor of HCV replication. The replicon assay system includes Neomycin Phosphotransferase (NPT) as a component of the replicon itself as a marker allowing convenient detection of the transcription of replicon gene products in the host cell. Cells in which the HCV replicon is actively replicating have high levels of NPT; the level of NPT is proportional to HCV replication. […] The NPT level of each sample may be measured using a captured ELISA. […]
# HCV replicon-containing cells are examined under a microscope to ensure that cells growing well. […] The cells are counted. […]
# [16] = system: NI-1^R (S282T); experiment: Susceptibility of NI-1 resistant replicon cell line; assay type: cell-based, hepatitis C virus; settings: NI-1^R (S282T) versus Huh-9-13
# [17] = system: ACH-806 resistant replicon cellular lines (806R); experiment: Susceptibility of ACH-806 resistant replicon cellular lines; assay type: cell-based, hepatitis C virus; settings: for Fold change in EC50: versus Huh-9-13
# [18] = target: the molecule itself; experiment: anti-NS4A immunoprecipitation and immunoblot of replicon cells or NS4A-transfected cells; dimer promoted by the compound ACH-806
# [19] = target: the molecule itself; experiment: Western blot of transfected cell lysate, treated with ACH-806
molecule,measurement,setting,value
"CCCCCOc1ccc(NC(=S)NC(=O)c2cccnc2)cc1C(F)(F)F [ACH-806, 1-nicotinoyl-3-(4-(pentyloxy)-3-(trifluoromethyl)phenyl)thiourea]",Fold change in EC50,[1],0.9
same,"Fold change in potency, EC50","[2]; Luc/NS3-A39V versus Luc/Parent replicon, one experiment",14
same,"Fold change in potency, EC50",[2]; {},14.0
same,"Fold change in potency, EC90",[2]; {},13.7
same,EC50,[3]; read-out: Potency EC50,10 ± 10 nM
same,EC90,[3]; read-out: Potency EC90,80 ± 10 nM
same,Fold change in EC50,[4],1.1
same,EC50,[5],270 ± 40 nM
same,EC90,[5],2350 ± 240 nM
same,"Fold change in potency, EC50",[6]; Luc/NS3-C16S versus Luc/Parent replicon,12
same,"Fold change in potency, EC50",[6]; {},11.1 ± 1.0
same,"Fold change in potency, EC90",[6]; {},11.3 ± 0.9
same,reduction in the susceptibility (number of colonies formed),[7],approximately 10 fold
same,increase of susceptibility on reversion of serine to cysteine at residue 16 of NS3,[8]; C16 revertant versus S16 replicon,about 10 fold
same,EC50,[8]; Hepatitis C virus,20 nM
same,EC90,[8]; Hepatitis C virus,240 ± 10 nM
same,reduction of replicase activity,[9],more than 50%
same,"Fold change in potency, EC50",[10],0.7 ± 0.1
same,"Fold change in potency, EC90",[10],1.1 ± 0.1
same,decrease in the susceptibility,[11],10-15 fold
same,Fold change in EC50,[12],0.5
same,Fold change in EC50,[13],0.6
same,EC50,[14],40 nM
same,Fold change in EC50,[14]; Parental cell line (Table 1),1.0
same,Fold change in EC50,[14]; Parental cell line (Table 4),1.0
same,EC50,[15],14 nM
same,Fold change in EC50,[16],0.8
same,Fold change in EC50,"[17]; 806^R #6 (Selection 2), NS3 A39V",18.6
same,Fold change in EC50,"[17]; 806^R #8 (Selection 2), NS3 A39V",9.5
same,Fold change in EC50,"[17]; 806^R #9 (Selection 2), NS3 A39V",11.5
same,Fold change in EC50,"[17]; 806^R #22 (Selection 1), NS3 C16S",13.9
same,Fold change in EC50,"[17]; 806^R #23 (Selection 1), NS3 C16S",18.6
same,Fold change in EC50,"[17]; 806^R #24 (Selection 1), NS3 C16S",11.2
same,Fold change in EC50,"[17]; 806^R #25 (Selection 1), NS3 C16S",14.9
same,Fold change in EC50,"[17]; 806^R #28 (Selection 1), NS3 C16S",21.3
same,Average fold change in EC50,[17]; average over 806^R cell lines,14.9
COc1ccc2c(O[C@@H]3C[C@H]4C(=O)N[C@]5(C(=O)O)C[C@H]5/C=C\CCCCC[C@H](NC(=O)OC5CCCC5)C(=O)N4C3)cc(-c3csc(NC(C)C)n3)nc2c1 [BILN 2061],Fold change in EC50,[1],2.8
same,Fold change in EC50,[4],>100
same,Fold change in EC50,[12],1.1
same,Fold change in EC50,[13],>100
same,EC50,[14],1.2 nM
same,Fold change in EC50,[14]; Parental cell line (Table 4),1.0
same,Fold change in EC50,[16],1.4
C[C@@]1(O)[C@H](O)[C@@H](CO)O[C@H]1n1ccc(N)nc1=O [NM107],Fold change in EC50,[12],30.7
same,Fold change in EC50,[14]; Parental cell line (Table 4),1.0
same,Fold change in EC50,[16],>68.7
CCC[C@H](NC(=O)[C@@H]1[C@H]2CCC[C@H]2CN1C(=O)[C@@H](NC(=O)[C@@H](NC(=O)c1cnccn1)C1CCCCC1)C(C)(C)C)C(=O)C(=O)NC1CC1 [VX-950],Fold change in EC50,[1],2.3
same,Fold change in EC50,[4],2.9
same,Fold change in EC50,[12],0.3
same,EC50,[14],610 nM
same,Fold change in EC50,[14]; Parental cell line (Table 4),1.0
"HCV NS4A protein (other, also called hepatitis C virus NS4A; monomer of p14) STWVLVGGVLAALAAYCLTTGSVVIVGRIILSGKPAIIPDREVLYREFDEMEEC",binding result,[18],binds
"NS4A-cFLAG (HCV NS4A (1b) with C-terminal FLAG antibody tag) (other, also called NS4A-FLAG; product of pCl-neo-NS4A-cFlag) STWVLVGGVLAALAAYCLTTGSVVIVGRIILSGKPAIIPDREVLYREFDEMEECDYKDDDDK",binding result,[19],binds
